Results taken from US20250145637A1, “SULFONAMIDE DERIVATIVE, PREPARATION METHOD THEREFOR AND MEDICAL USE THEREOF” (Jiangsu Hengrui Pharmaceuticals Co. Ltd., priority 2021, published 2025).

Test system: ZR-75-1
Assay: ZR-75-1 proliferation assay (CellTiter-Glo, day 14)
Assay type: cell-based
Conditions: Homo sapiens, 336 h, CTG assay day 14; for IC50: ZR-75-1 proliferation; for Emax: inhibition of ZR-75-1 proliferation, read-out: Maximum inhibition rate/Imax %
Excerpt: Test Example 4: ZR-75-1 Proliferation Assay
I. Reagents and Instruments
• 1. ZR-75-1 (ATCC CRL1500) • 2. 1640 medium (Gibco, 22400-089) • 3. 0.25% trypsin-EDTA (1×) (Gibco, 25200-072) • 4. Penicillin-streptomycin (Gibco, 15140-122) • 5. DPBS (1×) (Gibco, 14190-144) • 6. FBS (Gibco, 10091148) • 7. Assay plate, 96-well, black with clear bottom (Corning, 3603) • 8. 96-well non-treated round-bottom plate (JET BIOFIL, TCP-002-096) • 9. CellTiter-Glo buffer (Promega, G756B) • 10. CellTiter-Glo substrate (Promega, G755B) • 11. Automatic cell counter (Countstar, IC1000) • 12. Thermostatic incubator (Thermo, 1160) • 13. PHERAstar FS (BMG labtech, PHERAstar FS)
a. The state of cells was observed under a microscope to make sure that the cell confluence was about 90%.
b. The cell supernatant was discarded. The cells were rinsed with DPBS once, and the DPBS was removed. The cells were digested with a proper amount of trypsin and left to stand at 37° C. for 5 min.
c. The digestion was stopped with an equal volume of 1640 medium containing 10% FBS, and the cell suspension was collected and centrifuged at 300 g for 3 min. The cells were suspended in a proper amount of fresh medium.
d. The resulting cell suspension was collected and cell counting was performed.
e. The cell suspension was diluted to 5×10^4/mL, 50 μL/well with 1640 medium containing 10% FBS. Each well contained 2500 ZR-75-1 cells.
f. The cell culture plates were incubated overnight in a 37° C., 5% carbon dioxide incubator.
2. Compound Addition (Day 1)
a. Each compound was serially diluted in DMSO to 9 concentration points (initial concentration of 100 μM, 3-fold dilution; the highest concentration of each compound may be adjusted depending on its IC50). For example, in a 96-well non-treated round-bottom plate, 3 μL of compound was serially diluted in 6 μL of DMSO.
b. Each concentration point of each compound was diluted 500-fold in the corresponding volume of 1640 medium.
c. 50 μL of diluted compound solution was added to the cell supernatant (50 μL/well) in each cell plate.
d. After the addition, the cell plates were incubated in a 37° C., 5% carbon dioxide incubator.
3. The Cells were Re-Digested and Plated, and the Compounds were Added (Day 7).
a. Six days after the addition, the compound-containing medium was discarded. Then the cells were rinsed with DPBS (150 μL/well), and the DPBS was immediately pipetted off.
b. The cells were digested with 50 μL of trypsin and left to stand at 37° C. for 3 min, and then the digestion was stopped with 1640 medium containing 10% FBS (150 μL/well).
c. The cells were well mixed using a pipette and re-plated at a ratio of 1:8; that is, 25 μL of cell suspension was pipetted into a new 96-well plate (25 μL of 1640 medium containing 10% FBS had been added to the new plate in advance).
d. Compound solution preparation and addition (50 μL/well) were performed according to steps a to c in 2.
e. After the addition, the cell plates were incubated in a 37° C., 5% carbon dioxide incubator.
a. CellTiter-Glo buffer and lyophilized CellTiter-Glo substrate were equilibrated to room temperature before use and were well mixed to prepare a 100-mL CellTiter-Glo reagent (or a prepared CellTiter-Glo reagent was removed from a −20° C. freezer and equilibrated to room temperature).
b. The plates to be tested were removed from the incubator and equilibrated to room temperature, and the CellTiter-Glo reagent was added at 50 μL/well.
c. The plates were shaken for 2 min so that the cells were completely lysed.
d. After the plates were left to stand at room temperature for 28 min and signals were stable, the plates were tested on PHERAstar FS.

Compound	IC50	Emax
COc1cccc(OC(F)(F)F)c1S(=O)(=O)Nc1noc2cc(Cn3cccn3)c3c(c12)OCCC3 [Compound 10, N-(5-((1H-pyrazol-1-yl)methyl)-3,4-dihydro-2H-chromeno[8,7-d]isoxazol-9-yl)-2-methoxy-6-(trifluoromethoxy)benzenesulfonamide]	2.95 nM	94.1%
COc1ccccc1S(=O)(=O)Nc1noc2cc(Cn3cccn3)c3c(c12)OCC3 [Compound 20, N-(4-((1H-pyrazol-1-yl)methyl)-2,3-dihydrobenzofuro[7,6-d]isoxazol-8-yl)-2-methoxybenzenesulfonamide]	8.6 nM	94.9%
CCOc1cc(C)ccc1S(=O)(=O)Nc1noc2cc(Cn3cccn3)c3c(c12)OCCC3 [Compound 7, N-(5-((1H-pyrazol-1-yl)methyl)-3,4-dihydro-2H-chromeno[8,7-d]isoxazol-9-yl)-2-ethoxy-4-methylbenzenesulfonamide]	1.6 nM	95.6%
COc1cccc(OC(F)(F)F)c1S(=O)(=O)Nc1noc2cc(Cn3cccn3)c3c(c12)OCC3 [Compound 23, N-(4-((1H-pyrazol-1-yl)methyl)-2,3-dihydrobenzofuro[7,6-d]isoxazol-8-yl)-2-methoxy-6-(trifluoromethoxy)benzenesulfonamide]	10.9 nM	90.8%
COc1cccc(OC)c1S(=O)(=O)Nc1noc2cc(Cn3cccn3)c3c(c12)OC(F)(F)O3 [Compound 5, N-(4-((1H-pyrazol-1-yl)methyl)-2,2-difluoro-[1,3]dioxolo[4′,5′:5,6]benzo[1,2-d]isoxazol-8-yl)-2,6-dimethoxybenzenesulfonamide]	0.9 nM	98%
COc1ccc(F)cc1S(=O)(=O)Nc1noc2cc(Cn3cccn3)c3c(c12)OCCC3 [Compound 9, N-(5-((1H-pyrazol-1-yl)methyl)-3,4-dihydro-2H-chromeno[8,7-d]isoxazol-9-yl)-5-fluoro-2-methoxybenzenesulfonamide]	1.6 nM	96.2%
COc1cccc(OC)c1S(=O)(=O)Nc1noc2cc(Cn3cccn3)c3c(c12)OCCC3 [Compound 2, N-(5-((1H-pyrazol-1-yl)methyl)-3,4-dihydro-2H-chromeno[8,7-d]isoxazol-9-yl)-2,6-dimethoxybenzenesulfonamide]	0.4 nM	96%
COc1ccccc1S(=O)(=O)Nc1noc2cc(Cn3cccn3)c3c(c12)OCCC3 [Compound 3, N-(5-((1H-pyrazol-1-yl)methyl)-3,4-dihydro-2H-chromeno[8,7-d]isoxazol-9-yl)-2-methoxybenzenesulfonamide]	1.9 nM	95%
COc1cccc(OC)c1S(=O)(=O)Nc1noc2cc(Cn3cccn3)c3c(c12)OCC3 [Compound 1, N-(4-((1H-pyrazol-1-yl)methyl)-2,3-dihydrobenzofuro[7,6-d]isoxazol-8-yl)-2,6-dimethoxybenzenesulfonamide]	1.4 nM	96%
Cc1ccc(S(=O)(=O)Nc2noc3cc(Cn4cccn4)c4c(c23)OCCC4)c(OCC(F)(F)F)c1 [Compound 8, N-(5-((1H-pyrazol-1-yl)methyl)-3,4-dihydro-2H-chromeno[8,7-d]isoxazol-9-yl)-4-methyl-2-(2,2,2-trifluoroethoxy)benzenesulfonamide]	2.6 nM	96.3%
